Residues, ends and D or L forms follow the SMILES beside them.
Assays:
[1] = test system: 0.221A2.1 cell line (peptide-loaded target); assay: Primary CTL induction from normal donor PBMC, 51Cr release on peptide-pulsed targets; assay type: cell-based, human
Protocol: (§1) The melanoma cells were treated with 100 U/ml IFNγ (Genzyme) for 48 hours at 37° C. before use as targets in the ^51Cr release and in situ IFNγ assays.
The monocytes were purified by plating 10×10^6 PBMC/well in a 6-well plate. After 2 hours at 37° C., the non-adherent cells were removed by gently shaking the plates and aspirating the supernatants. The wells were washed a total of three times with 3 ml RPMI to remove most of the non-adherent and loosely adherent cells. Three ml of complete medium containing 50 ng/ml of GM-CSF and 1,000 U/ml of IL4 were then added to each well. DC were used for CTL induction cultures following 7 days of culture.
Induction of CTL with DC and Peptide: CD8+ T-cells were isolated by positive selection with Dynal immunomagnetic beads (Dynabeads® M-450) and the detacha-bead® reagent. Typically about 200-250×10^6 PBMC were processed to obtain 24×10^6 CD8^+ T-cells (enough for a 48-well plate culture). Briefly, the PBMCs were thawed in RPMI with 30 μg/ml DNAse, washed once with PBS containing 1% human AB serum and resuspended in PBS/1% AB serum at a concentration of 20×10^6 cells/ml. The magnetic beads were washed 3 times with PBS/AB serum, added to the cells (140 μl beads/20×10^6 cells) and incubated for 1 hour at 4° C. with continuous mixing. The beads and cells were washed 4× with PBS/AB serum to remove the nonadherent cells and resuspended at 100×10^6 cells/ml (based on the original cell number) in PBS/AB serum containing 100 μ/ml detacha-bead® reagent and 30 μg/ml DNAse. The mixture is incubated for 1 hour at room temperature with continuous mixing. The beads were washed again with PBS/AB/DNAse to collect the CD8+ T-cells. The DC were collected and centrifuged at 1300 rpm for 5-7 minutes, washed once with PBS with 1% BSA, counted and pulsed with 40 μg/ml of peptide at a cell concentration of 1-2×10^6/ml in the presence of 3 μg/ml β2- microglobulin for 4 hours at 20° C. The DC were then irradiated (4,200 rads), washed 1 time with medium and counted again.
Setting up induction cultures: 0.25 ml cytokine-generated DC (@1×10^5 cells/ml) were co-cultured with 0.25 ml of CD8+ T-cells (@2×10^6 cell/ml) in each well of a 48-well plate in the presence of 10 ng/ml of IL-7. rHuman IL10 was added the next day at a final concentration of 10 ng/ml and rhuman IL2 was added 48 hours later at 10 IU/ml.
Restimulation of the induction cultures with peptide-pulsed adherent cells: Seven and fourteen days after the primary induction the cells were restimulated with peptide-pulsed adherent cells. The PBMCS were thawed and washed twice with RPMI and DNAse. The cells were resuspended at 5×10^6 cells/ml and irradiated at ˜4200 rads. The PBMCs were plated at 2×10^6 in 0.5 ml complete medium per well and incubated for 2 hours at 37° C. The plates were washed twice with RPMI by tapping the plate gently to remove the nonadherent cells and the adherent cells pulsed with 10 μg/ml of peptide in the presence of 3 μg/ml β2 microglobulin in 0.25 ml RPMI/5% AB per well for 2 hours at 37° C. Peptide solution from each well was aspirated and the wells were washed once with RPMI. Most of the media was aspirated from the induction cultures (CD8+ cells) and brought to 0.5 ml with fresh media. The cells were then transferred to the wells containing the peptide-pulsed adherent cells. Twenty four hours later rhuman IL10 was added at a final concentration of 10 ng/ml and rhuman IL2 was added the next day and again 2-3 days later at 50 IU/ml (Tsai et al., Critical Reviews in Immunology 18(l-2):65-75, 1998). Seven days later the cultures were assayed for CTL activity in a ^51Cr release assay. In some experiments the cultures were assayed for peptide-specific recognition in the in situ IFNγ ELISA at the time of the second restimulation followed by assay of endogenous recognition 7 days later. After expansion, activity was measured in both assays for a side by side comparison. […]

[2] = test system: melanoma cell lines (624 mel and 888 mel); assay: Primary CTL induction, 51Cr release on tumor targets (endogenous recognition); assay type: cell-based, human
Protocol: as §1
Restimulation of the induction cultures with peptide-pulsed adherent cells: Seven and fourteen days after the primary induction the cells were restimulated with peptide-pulsed adherent cells. The PBMCS were thawed and washed twice with RPMI and DNAse. The cells were resuspended at 5×10^6 cells/ml and irradiated at ˜4200 rads. The PBMCs were plated at 2×10^6 in 0.5 ml complete medium per well and incubated for 2 hours at 37° C. The plates were washed twice with RPMI by tapping the plate gently to remove the nonadherent cells and the adherent cells pulsed with 10 μg/ml of peptide in the presence of 3 μg/ml β2 microglobulin in 0.25 ml RPMI/5% AB per well for 2 hours at 37° C. Peptide solution from each well was aspirated and the wells were washed once with RPMI. Most of the media was aspirated from the induction cultures (CD8+ cells) and brought to 0.5 ml with fresh media. The cells were then transferred to the wells containing the peptide-pulsed adherent cells. Twenty four hours later rhuman IL10 was added at a final concentration of 10 ng/ml and rhuman IL2 was added the next day and again 2-3 days later at 50 IU/ml (Tsai et al., Critical Reviews in Immunology 18(l-2):65-75, 1998). Seven days later the cultures were assayed for CTL activity in a ^51Cr release assay. In some experiments the cultures were assayed for peptide-specific recognition in the in situ IFNγ ELISA at the time of the second restimulation followed by assay of endogenous recognition 7 days later. After expansion, activity was measured in both assays for a side by side comparison.
Seven days after the second restimulation, cytotoxicity was determined in a standard (5 hr) ^51Cr release assay by assaying individual wells at a single E:T. Peptide-pulsed targets were prepared by incubating the cells with 10 μg/ml peptide overnight at 37° C.
Adherent target cells were removed from culture flasks with trypsin-EDTA. Target cells were labelled with 200 μCi of ^51Cr sodium chromate (Dupont, Wilmington, Del.) for 1 hour at 37° C. […] Target cells.(100 μl) and 100 μl of effectors were plated in 96 well round-bottom plates and incubated for 5 hours at 37° C. At that time, 100 μl of supernatant were collected from each well and percent lysis was determined according to the formula: [(cpm of the test sample−cpm of the spontaneous ^51Cr release sample)/(cpm of the maximal ^51Cr release sample−cpm of the spontaneous ^51Cr release sample)]×100. Maximum and spontaneous release were determined by incubating the labelled targets with 1% Trition X-100 and media alone, respectively.
CTL Expansion. […] The cells were split if the cell concentration exceeded 1×10^6/ml and the cultures were assayed between days 13 and 15 at E:T ratios of 30, 10, 3 and 1:1 in the ^51Cr release assay or at 1×10^6/ml in the in situ IFNγ assay using the same targets as before the expansion.
The A2-supermotif cross-reactive binding peptides that were selected for further evaluation were tested in the cellular assay for the ability to induce peptide-specific CTL in normal individuals.

HLA-B*5301 = HLA-B*5301 (Homo sapiens, UniProt P01889, A329T/A93T/A95T/C349S/D201E/D98Y/E176V/E187L/E204Q/E69T/G107R/I218V/K202T/L105A/L119I/N104I/Q94N/R106L/R155S/R180L/S101N/S121R/S35A/S48A/T118I/V127L/V306I/V36M/Y140S/Y91F); assay: Purified HLA class I peptide binding assay, B*5301; conditions: binding affinity, HLA-B7 supermotif-bearing peptides
HLA-B*0702 = HLA-B*0702 (Homo sapiens, UniProt P01889); assay: Purified HLA class I peptide binding assay, B*0702; conditions: binding affinity, HLA-B7 supermotif-bearing peptides
HLA-B*5101 (B51) = HLA-B*5101 (B51) (Homo sapiens, UniProt P01889, A329T/A93T/A95T/C349S/D138N/D201E/D98Y/E187L/E204Q/E69T/G107R/I218V/K202T/L105A/L119W/N104I/Q94N/R106L/R155S/R180L/S101N/S121T/S35A/S48A/V306I/V36M/Y195H/Y91F); assay: Purified HLA class I peptide binding assay, B51; conditions: binding affinity, HLA-B7 supermotif-bearing peptides; read-out: B*5101 nM
HLA-B*3501 = HLA-B*3501 (Homo sapiens, UniProt P01889, A329T/A93T/A95T/C349S/D201E/D98Y/E176V/E187L/E204Q/E69T/I218V/K202T/L119I/Q94N/R155S/R180L/S121R/S35A/S48A/T118I/V127L/V306I/V36M/Y140S/Y91F); assay: Purified HLA class I peptide binding assay, B*3501; conditions: binding affinity, HLA-B7 supermotif-bearing peptides
HLA-B*5401 = HLA-B*5401 (Homo sapiens, UniProt P01889, A329T/C349S/D138N/D201E/E176V/E187T/E204Q/E69G/I76V/K202T/L119W/R155S/R180L/S121T/S35A/S48A/V127L/V306I/V36M/Y140L); assay: Purified HLA class I peptide binding assay, B*5401; conditions: binding affinity, HLA-B7 supermotif-bearing peptides
[3] = number of donors positive over the total number of donors tested
[4] = number of donors positive over total tested, tumor targets
[5] = Number of donors yielding a positive response/total tested

Structure (SMILES) | CTL Wild-type [1, 3] | CTL Tumor [2, 4] | other results
CC[C@H](C)[C@H](N)C(=O)N[C@@H](CCSC)C(=O)N1CCC[C@H]1C(=O)N[C@@H](CCCCN)C(=O)N[C@@H](C)C(=O)NCC(=O)N[C@@H](CC(C)C)C(=O)N[C@@H](CC(C)C)C(=O)N[C@H](C(=O)N[C@H](C(=O)N[C@H](C(=O)O)C(C)C)[C@@H](C)CC)[C@@H](C)CC | 3/4 | 0/3^ | 
CC[C@H](C)[C@H](NC(=O)[C@@H](N)CCCCN)C(=O)N[C@@H](Cc1c[nH]c2ccccc12)C(=O)N[C@@H](CCC(=O)O)C(=O)N[C@@H](CCC(=O)O)C(=O)N[C@@H](CC(C)C)C(=O)N[C@@H](CO)C(=O)N[C@H](C(=O)N[C@@H](CC(C)C)C(=O)O)C(C)C | 3/4 | 0/3^ | CTL Wild-type [1, 5]: 3/4
CSCC[C@H](NC(=O)[C@@H](N)CCCCN)C(=O)N[C@H](C(=O)N[C@@H](CCC(=O)O)C(=O)N[C@@H](CC(C)C)C(=O)N[C@H](C(=O)N[C@@H](Cc1c[nH]cn1)C(=O)N[C@@H](Cc1ccccc1)C(=O)N[C@@H](CC(C)C)C(=O)N[C@@H](CC(C)C)C(=O)O)C(C)C)C(C)C | 1/1 | 0/1^ | 
CC[C@H](C)[C@H](NC(=O)CNC(=O)[C@H](Cc1ccccc1)NC(=O)[C@@H](NC(=O)[C@H](CC(C)C)NC(=O)[C@@H](N)CCC(N)=O)C(C)C)C(=O)N[C@@H](CCC(=O)O)C(=O)N[C@@H](CC(C)C)C(=O)N[C@@H](CCSC)C(=O)N[C@@H](CCC(=O)O)C(=O)N[C@H](C(=O)O)C(C)C |  |  | CTL Tumor ([2]; donors positive over total tested, positive result seen after the second restim.): 1/3^2
CC[C@H](C)[C@H](NC(=O)CNC(=O)[C@H](Cc1ccccc1)NC(=O)[C@@H](NC(=O)[C@H](CC(C)C)NC(=O)[C@H](CCC(N)=O)NC(=O)[C@H](CC(C)C)NC(=O)[C@@H](N)Cc1ccc(O)cc1)C(C)C)C(=O)N[C@@H](CCC(=O)O)C(=O)N[C@H](C(=O)O)C(C)C [YLQLVFG1EV] |  |  | CTL Wild-type [1, 5]: 313
CC[C@H](C)[C@H](NC(=O)CNC(=O)[C@H](Cc1ccccc1)NC(=O)[C@@H](NC(=O)[C@@H](N)CC(C)C)C(C)C)C(=O)N[C@@H](CCC(=O)O)C(=O)N[C@H](C(=O)N[C@H](C(=O)N[C@@H](CCC(=O)O)C(=O)N[C@H](C(=O)O)C(C)C)C(C)C)C(C)C | 4/4 | 0/3^ | 
CC(C)C[C@H](NC(=O)[C@H](CC(C)C)NC(=O)[C@H](Cc1ccccc1)NC(=O)[C@H](Cc1c[nH]cn1)NC(=O)[C@@H](NC(=O)[C@H](CC(C)C)NC(=O)[C@H](CCC(=O)O)NC(=O)[C@H](C)NC(=O)[C@@H](NC(=O)[C@@H](N)CCCCN)C(C)C)C(C)C)C(=O)O | 0/1 | 0/1^ | 
CC[C@H](C)[C@H](NC(=O)[C@H](Cc1ccc(O)cc1)NC(=O)[C@H](CC(C)C)NC(=O)[C@H](Cc1c[nH]cn1)NC(=O)CNC(=O)[C@@H](NC(=O)[C@@H]1CCCN1C(=O)[C@@H](N)Cc1ccccc1)[C@@H](C)CC)C(=O)N[C@@H](Cc1ccccc1)C(=O)N[C@@H](C)C(=O)O (H-FPIGHLYIFA-OH; N-terminus and C-terminus assumed) |  |  | IC50 (HLA-B*5301): 179 nM; IC50 (HLA-B*0702): 39 nM; IC50 (HLA-B*5101 (B51)): 56 nM; IC50 (HLA-B*3501): 51 nM; IC50 (HLA-B*5401): 0.4 nM
CSCC[C@H](NC(=O)[C@@H](N)CCCCN)C(=O)N[C@H](C(=O)N[C@@H](CCC(=O)O)C(=O)N[C@@H](CC(C)C)C(=O)N[C@H](C(=O)N[C@@H](Cc1c[nH]cn1)C(=O)N[C@@H](Cc1ccccc1)C(=O)N[C@@H](CC(C)C)C(=O)N[C@@H](CC(C)C)C(=O)N[C@@H](CC(C)C)C(=O)O)C(C)C)C(C)C | 1/1 | 0/1^ | 
CC(C)C[C@H](NC(=O)[C@H](Cc1ccc(O)cc1)NC(=O)[C@H](CCC(=O)O)NC(=O)[C@H](CO)NC(=O)[C@H](C)NC(=O)[C@@H](N)CCCCN)C(=O)N[C@@H](CCC(N)=O)C(=O)N[C@@H](CC(C)C)C(=O)N[C@H](C(=O)O)C(C)C | 2/4 | 0/2^ | 

From patent US20040053822A1, “Inducing cellular immune responses to mage2/3 using peptide and nucleic acid compositions” (priority 2002, published 2004)
